By IC50 is commonly meant the concentration at which inhibition is half-maximal. One may read the bioavailability as dose-corrected exposure relative to a reference, in per cent.

Where two headings read alike, the source gives them in different places.

The text below walks through data of US20240382477A1, “NITROGEN-CONTAINING HETEROCYCLIC PYRIDINE COMPOUND” (SHANGHAI ZHEYE BIOTECHNOLOGY CO. LTD., priority 2021, published 2024).

For data set [1], the system named is psoriasis-like mouse model induced by imiquimod. The data set can be described thus: Efficacy test in psoriasis-like mouse model induced by imiquimod (PASI score). The data set is classed as in vivo, Balb/c mice. Here is the method:
Experimental animal: Balb/c mice.
• (1) negative control group (applying Vaseline, administering solvent intragastrically), • (2) model control group [applying imiquimod (IMQ)], • (3) administration group (applying IMQ, administering Compound 7, Compound 8, Compound 9, Compound 10, and Compound No. 146 intragastrically); • wherein, “Compound No. 146” refers to the compound in Example 146 of reference WO2014074661, which was prepared according to the method described therein.
(§1) Administration dosage and method: 20 mg/kg, BID, intragastric administration.
Experiment process: On Day 0, the animals were subjected to hair shaving on the test area of the back, and then they were grouped. From Day 1 to Day 7, one hour after the first administration in every morning, 40 mg of 5% imiquimod cream was applied once to the test area on the back, after that, a second administration was conducted on the same day. The skin lesion symptoms of psoriasis and efficacy were evaluated through Psoriasis Area and Severity Index (PASI) score (erythema, scale, thickening degree). The higher the score, the more severe the symptoms are.
PASI score results on day 7 are listed in the table below, wherein, • “+” represents a score of ≥6; • “++” represents a score of greater than 5 and less than 6; • “+++” represents a score of greater than 4 and less than or equal to 5; • “++++” represents a score of less than or equal to 4.
By using the same scheme as test example 1, pharmaceutical efficacy in psoriasis-like mouse model induced by imiquimod was studied.
By using the same scheme as test example 1, pharmaceutical efficacy in psoriasis-like mouse model induced by imiquimod was studied. PASI score results on Day 7 are listed in the table below, wherein, • “+” represents a score of ≥6; • “++” represents a score of greater than 5 and less than 6; • “+++” represents a score of greater than 4 and less than or equal to 5; • “++++” represents a score of less than or equal to 4.

For data set [2], the system named is IL-17F. The data set can be described thus: Rat model with increased IL-17 induced by imiquimod, intragastric administration. The data set is classed as in vivo, SD rats. Conditions: for skin lesions in rats: after treatment by intragastric administration. Here is the method:
Experimental animal: 8 to 10-week old SD rats, half male and half female.
• (1) negative control group (applying Vaseline, administering solvent intragastrically), • (2) model control group [applying imiquimod (IMQ)], • (3) administration group (applying IMQ, administering the compounds of the present invention intragastrically).
as §1
Model establishment: SD rat was subjected to application of 40 mg of imiquimod ointment on its back skin once a day to construct the rat model. […]
By using the same scheme as biological test example 8, the efficacy of the compounds of the present invention was evaluated, and the following test results were obtained: […]

For data set [3], the system named is pSTAT5 expression in CD3+ cells. As to the kind of experiment: Inhibition of pSTAT5 expression in CD3+ cells of IFN-alpha stimulated human PBMC by FACS. The data set is classed as cell-based. Conditions: read-out: Inhibitory activity on p-STAT5 expression (IC50 value). Here is the method:
Compound dilution and preparation: The test compound was prepared into a 10 mM solution using DMSO, and diluted in DMSO to obtain a solution with a gradient of different concentrations which was 500 times of the final concentration. 5 μL of the diluted compound was transferred into 120 μL of PBS solution containing 0.1% BSA. Positive and negative control groups were set up with 0.2% DMSO ultimately contained in each group.
• 1) Human PBMC cells were added into a 96-well cell culture plate, with 0.5 million cells and a volume of 67.5 μL per well. • 2) 3.5 μL of the diluted compound was added and mixed evenly. • 3) The incubation was carried out in a 37° C. incubator for 60 minutes. • 4) IFN-alpha was diluted to 600 ng/ml in DPBS containing 0.1% BSA. After the above 60-minute incubation, 5 μL of PE-anti-hCD3 antibody was added into each well, then 4 μL of the diluted IFN-alpha was also added into each well. • 5) The incubation was carried out in a 37° C. incubator for 30 minutes. • 6) All cells were transferred into a 96-deep-well plate and added with 1 mL of Lyse/fix buffer preheated at 37° C. • 7) The incubation was carried out in dark at 37° C. for 10 minutes. • 8) The plate was centrifuged at 600 g for 5 minutes with the supernatant abandoned, then washed twice with 1 mL of PBS and centrifuged. • 9) 1 mL of Perm buffer III was added into the cell precipitation. • 10) The incubation was carried out in dark at 4° C. for 30 minutes. • 11) The plate was centrifuged at 600 g for 5 minutes with the supernatant abandoned, then washed twice with 1 mL of PBS and centrifuged. • 12) APC anti-human pSTAT5 antibody was diluted 200 times in Staining buffer, then added into the cell wells with 100 μL per well, and mixed evenly. • 13) The incubation was carried out at room temperature for 40 minutes. • 14) The plate was washed twice with 1 mL of Staining buffer per well, and centrifuged at 600 g for 5 minutes. • 15) After the supernatant was abandoned, the cell precipitation was resuspended in 300 μL of Staining buffer. • 16) The sample was loaded and analyzed in a Beckman CytoFlex flow cytometer.

Data set [4] deals with TYK2-JH2 (Homo sapiens, UniProt P29597). As to the kind of experiment: Enzymology experiment in vitro: TYK2-JH2 binding (Tb antibody/Tracer fluorescence ratio). As to conditions: for IC50: read-out: TYK2-JH2 binding inhibitory activity (IC50 value).
TYK2-JH2, sequence (P29597 589-875 limits assumed): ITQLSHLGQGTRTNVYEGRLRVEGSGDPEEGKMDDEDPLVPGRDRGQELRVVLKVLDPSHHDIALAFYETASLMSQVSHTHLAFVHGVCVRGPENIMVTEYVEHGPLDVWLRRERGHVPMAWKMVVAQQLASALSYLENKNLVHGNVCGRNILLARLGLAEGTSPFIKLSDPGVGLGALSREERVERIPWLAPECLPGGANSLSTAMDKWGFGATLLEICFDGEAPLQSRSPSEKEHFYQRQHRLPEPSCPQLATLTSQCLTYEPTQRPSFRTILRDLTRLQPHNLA
Data set [5] can be described thus: Pharmacokinetic study in vivo. Conditions: rat, plasma; male SD rats; 1 mg/kg IV, 10 mg/kg PO (intragastric), single administration; read-out: Absolute bioavailability(F %). Here is the method: Experimental animal: 8 to 10 week-old male SD rats, fasted 12 hours before administration. Intragastric administration: mixed solution (ethanol+TPGS+PEG300=5:5:90) was used as the administration solvent. Injection administration: mixed solution (PEG400+ddH20=80:20) was used as the administration solvent. Administration capacity: 5 ml/kg. Animal grouping: intravenous IV group and intragastric PO group, with 3 male SD rats in each group. Administration route and dosage: 1 mg/kg for intravenous IV group; 10 mg/kg for intragastric PO group. Administration frequency: single administration. • IV blood collection points: 5 minutes, 15 minutes, 30 minutes, 1 hour, 2 hours, 4 hours, 6 hours, 8 hours, and 24 hours after administration; • PO blood collection points: 15 minutes, 30 minutes, 1 hour, 2 hours, 4 hours, 6 hours, 8 hours, and 24 hours after administration. The whole blood of rat was centrifuged at 10000 rpm for 5 minutes to separate plasma, which was stored at 4° C. 0.1 ml of the plasma was taken, added with 0.2 ml of acetonitrile, vortexed for 1 minute, and centrifuged at 10000 rpm for 5 minutes to take the supernatant, which was sent for analysis of drug content after 0.22 μm filtration.

Setting [6] is: Test Example 6, same scheme as test example 1, day 7.
Setting [7] is: Test Example 9, same scheme as test example 8.
The mark [8] stands for this setting: human PBMC, CD3+ cells, IFN-alpha stimulation, FACS.
Setting [9] is: Test Example 1, Balb/c mice, imiquimod, 20 mg/kg BID intragastric, day 7, higher score = more severe.
[10] abbreviates: Test Example 8, SD rats, imiquimod, 20 mg/kg BID intragastric, day 6.

Take `[2H]C([2H])([2H])NC(=O)c1nnc(NC(=N)C2CC2)cc1Nc1cccc(-c2ncn(C)n2)c1OC` [Compound 1-1-1]: the PASI score result in data set [1] (setting [6]) was “+ (a score of ≥6)”. In data set [2] (setting [7]), the “Content level of IL-17F in skin” value is “D (an IL-17F content ranging from 300 pg/mL to 400 pg/mL)”.
`[2H]C([2H])([2H])NC(=O)c1nnc(NC(=O)C2CC2)cc1Nc1cccc(-c2ncn(COCC[Si](C)(C)C)n2)c1OC` [Compound 1-3]: in data set [1] (setting [6]), the PASI score result was “++ (a score of greater than 5 and less than 6)”.
Take `[2H]C([2H])([2H])NC(=O)c1nnc(NC(=O)C2CC2)cc1Nc1cccc(-c2ncn(CCNC(C)=S)n2)c1OC` [Compound 1-4]: the PASI score entry in data set [1] (setting [6]) is “++ (a score of greater than 5 and less than 6)”.
Consider `[2H]C([2H])([2H])NC(=O)c1nnc(NC(=O)C2CC2)cc1Nc1cccc(-n2cccn2)c1OC` [Compound 1-5], for which, in data set [1] (setting [6]), the PASI score result was “++ (a score of greater than 5 and less than 6)”.
As to `[2H]C([2H])([2H])NC(=O)c1nnc(NC(=O)C2CC2)cc1Nc1cccc(-n2ccnn2)c1OC` [Compound 1-6], the PASI score result in data set [1] (setting [6]) was “++ (a score of greater than 5 and less than 6)”.
`[2H]C([2H])([2H])NC(=O)c1nnc(NC(=O)C2CC2)cc1Nc1cccc(-c2ncn(C3(C(=O)OC)CC3)n2)c1OC` [Compound 1-7]: in data set [1] (setting [6]), the PASI score result was “++ (a score of greater than 5 and less than 6)”.
Regarding `[2H]C([2H])([2H])NC(=O)c1nnc(NS(=O)(=O)C2CC2)cc1Nc1cccc(-c2ncn(C)n2)c1OC` [Compound 1-8], the PASI score result in data set [1] (setting [6]) is given as “+ (a score of ≥6)”.
For `[2H]C([2H])([2H])NC(=O)c1nnc(NC(=O)C=C)cc1Nc1cccc(-c2ncn(C)n2)c1OC` [Compound 1-9], the PASI score result in data set [1] (setting [6]) is “+ (a score of ≥6)”.
Turning to `[2H]C([2H])([2H])NC(=O)c1nnc(NC(=S)C2CC2)cc1Nc1nccc(-c2ncn(C)n2)c1OC` [Compound 2-1A-1], the IC50 in data set [3] (setting [8]) was less than 1 nM; in data set [4] it was less than 0.1 nM. The PASI score result in data set [1] (setting [6]) is “++++ (a score of less than or equal to 4)”. Further, in data set [2] (setting [7]), the “Content level of IL-17F in skin” value is on record as “A (an IL-17F content less than 30 pg/mL)”. Also, in data set [2], the “skin lesions in rats” value was “significantly reduced”.
Turning to `[2H]C([2H])([2H])NC(=O)c1nnc(NC(=O)C2CC2)cc1Nc1cccc(-c2nnn(CC#C)n2)c1OC` [Compound 2-1B-1], the IC50 in data set [3] (setting [8]) lay in the range of 5 to 10 nM; in data set [4], 0.1 to 0.5 nM. Besides, in data set [1] (setting [6]), the PASI score result was “++ (a score of greater than 5 and less than 6)”.
In the case of `[2H]C([2H])([2H])NC(=O)c1nnc(NC(=O)C2CC2)nc1Nc1cccc(-c2ncn(CC#C)n2)c1OC` [Compound 2-1B-2], the IC50 in data set [3] (setting [8]) is 5 to 10 nM; in data set [4] it was 0.5 to 1 nM. Also, the PASI score result in data set [1] (setting [6]) is “++ (a score of greater than 5 and less than 6)”.
As for `[2H]C([2H])([2H])NC(=O)c1nnc(NC(=O)C2CC2)cc1Nc1cccc(-c2ccn(CC#C)n2)c1OC` [Compound 2-1B-7], the IC50 in data set [3] (setting [8]) lay within 5 to 10 nM; in data set [4] it was 0.1 to 0.5 nM. In addition, in data set [1] (setting [6]), the PASI score entry was “++ (a score of greater than 5 and less than 6)”.
With `[2H]C([2H])([2H])NC(=O)c1nnc(NC(=O)C2CC2)cc1Nc1nccc(-c2ncn(CC#C)n2)c1OC` [Compound 7], the IC50 in data set [3] (Homo sapiens, PBMC) is less than 1 nM; in data set [4], less than 0.1 nM. Further, the PASI score result in data set [1] (setting [9]) and in data set [1] (setting [6]) was “++++ (a score of less than or equal to 4)” each time. In data set [2] (setting [10]), the “Content level of IL-17F in skin” value is “A (an IL-17F content less than 30 pg/mL)”. Besides, the “skin lesions in rats” value in data set [2] was “significantly reduced”.
As for `[2H]C([2H])([2H])NC(=O)c1nnc(NC(=O)C2CC2)cc1Nc1nccc(-c2ncn(C([2H])([2H])C#C)n2)c1OC` [Compound 8], the concentration for half-maximal inhibition (IC50) in data set [3] (Homo sapiens, PBMC) is less than 1 nM; in data set [4], less than 0.1 nM. Also, the PASI score result in data set [1] (setting [9]) and in data set [1] (setting [6]) was “++++ (a score of less than or equal to 4)” each time.
Consider `[2H]C#CC([2H])([2H])n1cnc(-c2ccnc(Nc3cc(NC(=O)C4CC4)nnc3C(=O)NC([2H])([2H])[2H])c2OC)n1` [Compound 9], for which the IC50 was less than 1 nM in data set [3] (Homo sapiens, PBMC) and less than 0.1 nM in data set [4]. For the same compound, the PASI score entry in data set [1] (setting [9]) and in data set [1] (setting [6]) was “++++ (a score of less than or equal to 4)” throughout.
For the compound `[2H]C([2H])([2H])NC(=O)c1nnc(NC(=O)C2CC2([2H])[2H])cc1Nc1nccc(-c2ncn(CC#C)n2)c1OC` (centres unmarked) [Compound 10], the IC50 in data set [3] (Homo sapiens, PBMC) was less than 1 nM. In addition, the PASI score entry in data set [1] (setting [9]) is reported as “++++ (a score of less than or equal to 4)”. In data set [4], the “effect on the activity of TYK2-JH2 (in words)” value was “have inhibitory effects on the activity of TYK2-JH2”.
`[2H]C([2H])([2H])NC(=O)c1nnc(NC(=O)C2([2H])CC2)cc1Nc1nccc(-c2ncn(CC#C)n2)c1OC` [Compound 11]: the IC50 was less than 1 nM in data set [3] (Homo sapiens, PBMC) and less than 0.1 nM in data set [4]. Moreover, the PASI score entry in data set [1] (Test Example 2, same scheme as test example 1, day 7) is “++++ (a score of less than or equal to 4)”; in data set [1] (setting [6]) it was “++++ (a score of less than or equal to 4)”. For the same compound, the “Content level of IL-17F in skin” value in data set [2] (setting [10]) is listed as “A (an IL-17F content less than 30 pg/mL)”. Moreover, the “skin lesions in rats” value in data set [2] was “significantly reduced”. Moreover, the bioavailability in data set [5] was 97.8%.
